Holding throughout (format): cell-based
One experiment relates to SW480 colon cancer cells. The experiment is described as follows: Cell viability assay (CellTiter-Blue). Particulars: Homo sapiens, 96 h, four days; for inhibition at 10 µM: given for EC50 >10 μM, read-out: percent inhibition at 10 μM. In a few lines: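 Four-day viability readout in SW480 cells: compound at 0.0045–10 μM (1:3 series), DMSO controls in eight replicates, CellTiter-Blue fluorescence after ~3 h. Values are regression-derived EC50s, or percent inhibition at 10 μM when EC50 exceeds 10 μM.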

Experiment [1] has as its system primary human fibroblasts derived from IPF patients (LL29 cells). Nature of the experiment: Inhibition of fibrotic process, αSMA staining in TGF-β1 treated LL29 fibroblasts. Particulars: Fibroblast, 96 h, TGF-β1 20 ng/mL, 4 days; for EC50: % αSMA positive cells; for inhibition at 10 µM: given for EC50 >10 μM, read-out: percent inhibition at 10 μM. In a few lines: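 IPF-patient LL29 lung fibroblasts in 1% FBS medium received compound (11-point, 1:2 dilution, 0.1% DMSO) plus TGF-β1 20 ng/mL, 4 days at 37 °C. Percent αSMA-positive cells among SYTOX-negative cells quantified by immunofluorescence imaging, normalized to TGF-β1/DMSO wells. EC50 by non-linear regression on triplicates; above 10 μM, % inhibition at 10 μM given.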

In experiment [2] the test system is IL-6 (THP-1 human monocyte cell line). The experiment is described as follows: IL-6 inhibition in LPS-stimulated THP-1 cells (HTRF). Particulars: LPS 500 ng/mL; for EC50: 22 hours, IL6 HTRF; for inhibition at 10 µM: given for EC50 >10 μM, read-out: percent inhibition at 10 μM. In a few lines: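 THP-1 cells, serum-reduced to 1% FBS for 24 h, preincubated 2 h at 37° C with compound (10-point, 1:3 series, 0.1% DMSO), then stimulated with 500 ng/mL LPS for 22 h. IL-6 quantified by HTRF 665/620 nm ratio, normalized to DMSO; EC50 by four-parameter fit, else percent inhibition at 10 μM.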

Usually EC50 stands for the concentration at which the effect is half-maximal. A lower EC50 goes with higher potency in that assay. The term inhibition denotes the share of the control response that was lost under treatment. `CCCCC(=O)Nc1cncc(-c2cnc3[nH]nc(-c4cc5c(-c6ccccc6F)ccnc5[nH]4)c3c2)c1` [Compound 75, N-(5-(3-(4-(2-Fluorophenyl)-1H-pyrrolo[2,3-b]pyridin-2-yl)-1H-pyrazolo [3,4-b]pyridin-5-yl)pyridin-3-yl)pentanamide]: the half-maximal effective concentration (EC50) (in the experiment on SW480 colon cancer cells; in experiment [1]; in experiment [2]) was over 10 µM each time. In addition, the inhibition at 10 µM in the experiment on SW480 colon cancer cells was determined as 23.6%; in experiment [1] it was 0%; in experiment [2] it was 33.8%.
For the compound `O=C(Nc1cncc(-c2cnc3[nH]nc(-c4cc5c(-c6ccccc6F)ccnc5[nH]4)c3c2)c1)C1CCCC1` [Compound 78, N-(5-(3-(4-(2-Fluorophenyl)-1H-pyrrolo[2,3-b]pyridin-2-yl)-1H-pyrazolo [3,4-b]pyridin-5-yl)pyridin-3-yl)cyclopentanecarboxamide], the results for the 50% effective concentration (EC50) (in the experiment with SW480 colon cancer cells; in experiment [1]; in experiment [2]) were over 10 µM, 7.09 µM and 0.627 µM, respectively. Besides, in the experiment with SW480 colon cancer cells, the inhibition at 10 µM turned out to be 11.3%.
As for `CC(C)CC(=O)Nc1cncc(-c2cnc3[nH]nc(-c4cc5c(-c6cccnc6)ccnc5[nH]4)c3c2)c1` [Compound 86, 3-Methyl-N-(5-(3-(4-(pyridin-3-yl)-1H-pyrrolo[2,3-b]pyridin-2-yl)-1H-pyrazolo[3,4-b]pyridin-5-yl)pyridin-3-yl)butanamide], the concentration giving a half-maximal response (EC50) (in the experiment with SW480 colon cancer cells; in experiment [1]; in experiment [2]) was over 10 µM each time. Moreover, the inhibition at 10 µM in the experiment with SW480 colon cancer cells is 24.1%; in experiment [1], 0%; in experiment [2], 34.3%.
On to `c1cncc(-c2cnc3[nH]nc(-c4cc5c(-c6cccnc6)ccnc5[nH]4)c3c2)c1` [Compound 88, 5-(Pyridin-3-yl)-3-(4-(pyridin-3-yl)-1H-pyrrolo[2,3-b]pyridin-2-yl)-1H-pyrazolo[3,4-b]pyridine], for which the EC50 (with SW480 colon cancer cells; in experiment [1]; in experiment [2]) was over 10 µM each time. The values for the inhibition at 10 µM (in the experiment with SW480 colon cancer cells; in experiment [1]; in experiment [2]) were 10.8%, 0% and 22.6%, respectively.
For `CCNCc1cncc(-c2cnc3[nH]nc(-c4cc5c(-c6cccnc6)ccnc5[nH]4)c3c2)c1` [Compound 90, N-((5-(3-(4-(Pyridin-3-yl)-1H-pyrrolo[2,3-b]pyridin-2-yl)-1H-pyrazolo[3,4-b]pyridin-5-yl)pyridin-3-yl)methyl)ethanamine], the EC50 was over 10 µM in the experiment with SW480 colon cancer cells, over 10 µM in experiment [1] and 5.36 µM in experiment [2]. The results for the inhibition at 10 µM (in the experiment on SW480 colon cancer cells; in experiment [1]) were 17% and 5.1%, respectively.
In the case of `CC(C)C(=O)Nc1cncc(-c2cnc3[nH]nc(-c4cc5c(-c6cccnc6)ccnc5[nH]4)c3c2)c1` [Compound 93, N-(5-(3-(4-(Pyridin-3-yl)-1H-pyrrolo[2,3-b]pyridin-2-yl)-1H-pyrazolo[3,4-b]pyridin-5-yl)pyridin-3-yl)isobutyramide], the EC50 (in the experiment on SW480 colon cancer cells; in experiment [1]; in experiment [2]) was over 10 µM in each case. The inhibition at 10 µM amounted to 10.1% with SW480 colon cancer cells, 42.1% in experiment [1] and 26.2% in experiment [2].
Consider `CC(C)Nc1cncc(-c2cnc3[nH]nc(-c4cc5c(-c6cccnc6)ccnc5[nH]4)c3c2)c1` [Compound 96, N-Isopropyl-5-(3-(4-(pyridin-3-yl)-1H-pyrrolo[2,3-b]pyridin-2-yl)-1H-pyrazolo[3,4-b]pyridin-5-yl)pyridin-3-amine], for which the values for the EC50 (in the experiment on SW480 colon cancer cells; in experiment [1]; in experiment [2]) were over 10 µM, 1.56 µM and 0.094 µM, respectively. In addition, in the experiment with SW480 colon cancer cells, the inhibition at 10 µM came to 14.3%.
Regarding `CN(C)Cc1cncc(-c2cnc3[nH]nc(-c4cc5c(-c6cccnc6)ccnc5[nH]4)c3c2)c1` [Compound 97, N,N-Dimethyl-1-(5-(3-(4-(pyridin-3-yl)-1H-pyrrolo[2,3-b]pyridin-2-yl)-1H-pyrazolo[3,4-b]pyridin-5-yl)pyridin-3-yl)methanamine], the EC50 (in the experiment on SW480 colon cancer cells; in experiment [1]; in experiment [2]) was over 10 µM throughout. Moreover, the inhibition at 10 µM in the experiment on SW480 colon cancer cells came to 19.6%; in experiment [1] it was 0%; in experiment [2], 38.5%.
Consider `c1cncc(-c2ccnc3[nH]c(-c4n[nH]c5ncc(-c6cncc(CN7CCCCC7)c6)cc45)cc23)c1` [Compound 99, 5-(5-(Piperidin-1-ylmethyl)pyridin-3-yl)-3-(4-(pyridin-3-yl)-1H-pyrrolo[2,3-b]pyridin-2-yl)-1H-pyrazolo[3,4-b]pyridine], for which the EC50 (in the experiment with SW480 colon cancer cells; in experiment [1]; in experiment [2]) was over 10 µM throughout. Further, the inhibition at 10 µM with SW480 colon cancer cells was found to be 9.6%; in experiment [1] it was 73.8%; in experiment [2], 37%.
As for `O=C(Nc1cncc(-c2cnc3[nH]nc(-c4cc5c(-c6cccnc6)ccnc5[nH]4)c3c2)c1)C1CC1` [Compound 104, N-(5-(3-(4-(Pyridin-3-yl)-1H-pyrrolo[2,3-b]pyridin-2-yl)-1H-pyrazolo[3,4-b]pyridin-5-yl)pyridin-3-yl)cyclopropanecarboxamide], the EC50 (with SW480 colon cancer cells; in experiment [1]; in experiment [2]) was over 10 µM each time. For the same compound, the inhibition at 10 µM in the experiment with SW480 colon cancer cells was found to be 10.4%; in experiment [1] it was 19.6%; in experiment [2], 35.8%.
Turning to `Nc1cncc(-c2cnc3[nH]nc(-c4cc5c(-c6ccncc6)ccnc5[nH]4)c3c2)c1` [Compound 115, 5-(3-(4-(Pyridin-4-yl)-1H-pyrrolo[2,3-b]pyridin-2-yl)-1H-pyrazolo[3,4-b]pyridin-5-yl)pyridin-3-amine], the figures for the EC50 (in the experiment with SW480 colon cancer cells; in experiment [1]; in experiment [2]) were over 10 µM, 5.9 µM and over 10 µM, respectively. In addition, the inhibition at 10 µM stood at 0% in the experiment with SW480 colon cancer cells and 40.6% in experiment [2].
Turning to `Cc1ccncc1-c1cnc2[nH]nc(-c3cc4c(-c5ccncc5)ccnc4[nH]3)c2c1` [Compound 117, 5-(4-Methylpyridin-3-yl)-3-(4-(pyridin-4-yl)-1H-pyrrolo[2,3-b]pyridin-2-yl)-1H-pyrazolo[3,4-b]pyridine], the 50% effective concentration (EC50) (in the experiment with SW480 colon cancer cells; in experiment [1]; in experiment [2]) was over 10 µM in each case. For the same compound, the inhibition at 10 µM with SW480 colon cancer cells amounted to 10.1%; in experiment [1], 52.9%; in experiment [2], 17.1%.
On to `O=C(Nc1cncc(-c2cnc3[nH]nc(-c4cc5c(-c6ccncc6)ccnc5[nH]4)c3c2)c1)c1ccccc1` [Compound 123, N-(5-(3-(4-(Pyridin-4-yl)-1H-pyrrolo[2,3-b]pyridin-2-yl)-1H-pyrazolo[3,4-b]pyridin-5-yl)pyridin-3-yl)benzamide], for which the EC50 (with SW480 colon cancer cells; in experiment [1]; in experiment [2]) was over 10 µM throughout. The results for the inhibition at 10 µM (in the experiment on SW480 colon cancer cells; in experiment [1]; in experiment [2]) were 12%, 0% and 15.1%, respectively.
Take `CC(C)(C)CC(=O)Nc1cncc(-c2cnc3[nH]nc(-c4cc5c(-c6ccncc6)ccnc5[nH]4)c3c2)c1` [Compound 128, 3,3-Dimethyl-N-(5-(3-(4-(pyridin-4-yl)-1H-pyrrolo[2,3-b]pyridin-2-yl)-1H-pyrazolo[3,4-b]pyridin-5-yl)pyridin-3-yl)butanamide]: the EC50 (in the experiment with SW480 colon cancer cells; in experiment [1]; in experiment [2]) was over 10 µM in each case. For the same compound, the inhibition at 10 µM in the experiment on SW480 colon cancer cells came to 10.7%; in experiment [1], 0%; in experiment [2] it was 45.8%.
With `CCCC(=O)Nc1cncc(-c2cnc3[nH]nc(-c4cc5c(-c6ccncc6)ccnc5[nH]4)c3c2)c1` [Compound 129, N-(5-(3-(4-(Pyridin-4-yl)-1H-pyrrolo[2,3-b]pyridin-2-yl)-1H-pyrazolo[3,4-b]pyridin-5-yl)pyridin-3-yl)butyramide], the concentration for a half-maximal effect (EC50) with SW480 colon cancer cells was over 10 µM; in experiment [1] it was 0.621 µM; in experiment [2], 0.621 µM. Moreover, the inhibition at 10 µM in the experiment on SW480 colon cancer cells stood at 3.8%.
Take `c1cc(-c2cnc3[nH]nc(-c4cc5c(-c6ccncc6)ccnc5[nH]4)c3c2)ccn1` [Compound 130, 5-(Pyridin-4-yl)-3-(4-(pyridin-4-yl)-1H-pyrrolo[2,3-b]pyridin-2-yl)-1H-pyrazolo[3,4-b]pyridine]: the 50% effective concentration (EC50) (in the experiment with SW480 colon cancer cells; in experiment [1]; in experiment [2]) was over 10 µM each time. The inhibition at 10 µM in the experiment with SW480 colon cancer cells came to 5.7%; in experiment [1] it was 20.5%; in experiment [2], 45.9%.
As for `O=C(Nc1cncc(-c2cnc3[nH]nc(-c4cc5c(-c6ccncc6)ccnc5[nH]4)c3c2)c1)C1CCCCC1` [Compound 135, N-(5-(3-(4-(Pyridin-4-yl)-1H-pyrrolo[2,3-b]pyridin-2-yl)-1H-pyrazolo[3,4-b]pyridin-5-yl)pyridin-3-yl)cyclohexanecarboxamide], the concentration giving a half-maximal response (EC50) (with SW480 colon cancer cells; in experiment [1]; in experiment [2]) was over 10 µM in each case. In addition, the results for the inhibition at 10 µM (in the experiment on SW480 colon cancer cells; in experiment [1]; in experiment [2]) were 13.9%, 19.8% and 37.7%, respectively.
